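The compound was tested at five concentrations on cells cultured in 96-well plates, with a 48-hour exposure period. Abbreviation: GI50, concentration required for 50% inhibition of growth.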 The source made the active and inactive calls. No stated cut-off is given here; in the data, active = GI50 up to about 1.1 µM and inactive = higher.
How the values were obtained:
Assay in all cases: NCI anticancer screen, dose series, 48 h
SW-620 = test system: SW-620
RPMI-8226 = test system: RPMI-8226
ACHN = test system: ACHN
IGROV-1 = test system: IGROV-1
786-0 = test system: 786-0
HT-29 = test system: HT-29
SNB-19 = test system: SNB-19
TK-10 = test system: TK-10
NCI-H460 = test system: NCI-H460
HOP-92 = test system: HOP-92
K562 = test system: K562
OVCAR-8 = test system: OVCAR-8
HOP-18 = test system: HOP-18
DMS-273 = test system: DMS-273
SK-OV-3 = test system: SK-OV-3
DLD-1 = test system: DLD-1
A549 = test system: A549
OVCAR-4 = test system: OVCAR-4
SNB-78 = test system: SNB-78
MOLT-4 = test system: MOLT-4
SK-MEL-5 = test system: SK-MEL-5
SF-268 = test system: SF-268
UACC-62 = test system: UACC-62
DMS-114 = test system: DMS-114
UACC-257 = test system: UACC-257
CAKI-1 = test system: CAKI-1
KM-20L2 = test system: KM-20L2
A498 = test system: A498
NCI-H23 = test system: NCI-H23
KM12 = test system: KM12
UO-31 = test system: UO-31
COLO 205 = test system: COLO 205
EKVX = test system: EKVX
SK-MEL-28 = test system: SK-MEL-28
LXFL 529 = test system: LXFL 529
HCT-116 = test system: HCT-116
U-251 = test system: U-251
OVCAR-5 = test system: OVCAR-5
HCT-15 = test system: HCT-15
M14 = test system: M14
HOP-62 = test system: HOP-62
SN12C = test system: SN12C
LOX IMVI = test system: LOX IMVI
SR = test system: SR
SF-539 = test system: SF-539
NCI-H522 = test system: NCI-H522
CCRF-CEM = test system: CCRF-CEM
M19-MEL = test system: M19-MEL
HCC 2998 = test system: HCC 2998
OVCAR-3 = test system: OVCAR-3
Malme-3M = test system: Malme-3M
SNB-75 = test system: SNB-75
RXF 393 = test system: RXF 393
SF-295 = test system: SF-295

Structure (SMILES): c1ccc2c(c1)[nH]c1c2nc2ccccn21
- GI50 (SW-620): > 100 µM (inactive)
- GI50 (RPMI-8226): > 100 µM (inactive)
- GI50 (ACHN): > 100 µM (inactive)
- GI50 (IGROV-1): > 100 µM (inactive)
- GI50 (786-0): > 100 µM (inactive)
- GI50 (HT-29): > 100 µM (inactive)
- GI50 (SNB-19): > 100 µM (inactive)
- GI50 (TK-10): 69 µM (inactive)
- GI50 (NCI-H460): > 100 µM (inactive)
- GI50 (HOP-92): > 100 µM (inactive)
- GI50 (K562): > 100 µM (inactive)
- GI50 (OVCAR-8): > 100 µM (inactive)
- GI50 (HOP-18): > 100 µM (inactive)
- GI50 (DMS-273): > 100 µM (inactive)
- GI50 (SK-OV-3): > 100 µM (inactive)
- GI50 (DLD-1): > 100 µM (inactive)
- GI50 (A549): > 100 µM (inactive)
- GI50 (OVCAR-4): > 100 µM (inactive)
- GI50 (SNB-78): > 100 µM (inactive)
- GI50 (MOLT-4): > 100 µM (inactive)
- GI50 (SK-MEL-5): > 100 µM (inactive)
- GI50 (SF-268): > 100 µM (inactive)
- GI50 (UACC-62): > 100 µM (inactive)
- GI50 (DMS-114): > 100 µM (inactive)
- GI50 (UACC-257): > 100 µM (inactive)
- GI50 (CAKI-1): > 100 µM (inactive)
- GI50 (KM-20L2): > 100 µM (inactive)
- GI50 (A498): > 100 µM (inactive)
- GI50 (NCI-H23): > 100 µM (inactive)
- GI50 (KM12): > 100 µM (inactive)
- GI50 (UO-31): > 100 µM (inactive)
- GI50 (COLO 205): > 100 µM (inactive)
- GI50 (EKVX): > 100 µM (inactive)
- GI50 (SK-MEL-28): > 100 µM (inactive)
- GI50 (LXFL 529): > 100 µM (inactive)
- GI50 (HCT-116): > 100 µM (inactive)
- GI50 (U-251): > 100 µM (inactive)
- GI50 (OVCAR-5): > 100 µM (inactive)
- GI50 (HCT-15): > 100 µM
- GI50 (M14): > 100 µM (inactive)

Structure (SMILES): CN(C)CC1CCC(CN(C)C)C1=NO (stereo not drawn)
- GI50 (HOP-62): > 100 µM (inactive)
- GI50 (SN12C): > 100 µM (inactive)
- GI50 (SW-620): > 100 µM (inactive)
- GI50 (RPMI-8226): > 100 µM (inactive)
- GI50 (ACHN): > 100 µM (inactive)
- GI50 (IGROV-1): > 100 µM (inactive)
- GI50 (LOX IMVI): > 100 µM (inactive)
- GI50 (SR): 29 µM (inactive)
- GI50 (SF-539): > 100 µM (inactive)
- GI50 (786-0): > 100 µM (inactive)
- GI50 (HT-29): > 100 µM (inactive)
- GI50 (NCI-H522): > 100 µM (inactive)
- GI50 (TK-10): > 100 µM (inactive)
- GI50 (NCI-H460): > 10 µM (inactive)
- GI50 (HOP-92): > 100 µM (inactive)
- GI50 (K562): > 100 µM (inactive)
- GI50 (CCRF-CEM): > 100 µM (inactive)
- GI50 (OVCAR-8): > 100 µM (inactive)
- GI50 (HOP-18): > 100 µM (inactive)
- GI50 (DMS-273): > 100 µM (inactive)
- GI50 (DLD-1): > 100 µM (inactive)
- GI50 (A549): > 100 µM (inactive)
- GI50 (M19-MEL): > 100 µM (inactive)
- GI50 (HCC 2998): > 100 µM (inactive)
- GI50 (OVCAR-4): > 100 µM (inactive)
- GI50 (SNB-78): > 100 µM (inactive)
- GI50 (MOLT-4): > 100 µM (inactive)
- GI50 (SK-MEL-5): > 100 µM (inactive)
- GI50 (SF-268): > 100 µM (inactive)
- GI50 (UACC-62): > 100 µM (inactive)
- GI50 (DMS-114): > 100 µM (inactive)
- GI50 (UACC-257): > 100 µM (inactive)
- GI50 (CAKI-1): > 100 µM (inactive)
- GI50 (KM-20L2): > 100 µM (inactive)
- GI50 (UO-31): > 100 µM (inactive)
- GI50 (COLO 205): > 100 µM (inactive)
- GI50 (EKVX): > 100 µM (inactive)
- GI50 (OVCAR-3): > 100 µM (inactive)
- GI50 (SK-MEL-28): > 100 µM (inactive)
- GI50 (LXFL 529): > 100 µM (inactive)
- GI50 (HCT-116): > 100 µM (inactive)
- GI50 (Malme-3M): > 100 µM (inactive)
- GI50 (OVCAR-5): > 100 µM (inactive)
- GI50 (HCT-15): > 100 µM
- GI50 (SNB-75): > 10 µM (inactive)
- GI50 (RXF 393): > 100 µM (inactive)
- GI50 (SF-295): > 10 µM (inactive)
- GI50 (M14): > 100 µM (inactive)
